IC50 data for 35 compounds are collected here from BindingDB's records for doi:10.1016/s0960-894x(02)01027-2 (Glaxosmithkline, 2003).

Molecules are shown by their SMILES.

The target of the first test is Methionine--tRNA ligase (Staphylococcus aureus). The test can be described thus: Compound tested for inhibition of Staphylococcus aureus MRS(methionyl tRNA synthetase) in aminoacylation assay.
Take `CC(C)Oc1c(Cl)cc(Cl)cc1CNCCCNc1cc(O)c2ccccc2n1` [2-[3-(3,5-Dichloro-2-isopropoxy-benzylamino)-propylamino]-1H-quinolin-4-one]: the midpoint of inhibition, the IC50, lay at 29 nM.

For `Oc1cc(NCCCNCc2cccc(Cl)c2Cl)nc2ccccc12` [2-[3-(2,3-Dichloro-benzylamino)-propylamino]-1H-quinolin-4-one], the IC50 (as a rule, the concentration that inhibits the measured activity by half) was determined as 15 nM.

The target is the same in the next test. The test can be described thus: Compound tested for inhibition of Staphylococcus aureus MRS (methionyl tRNA synthetase) in aminoacylation assay.
In turn, `CCOc1c(I)cc(CO)cc1CNCCCNc1cc(O)c2ccccc2n1` [2-[3-(2-Ethoxy-5-hydroxymethyl-3-iodo-benzylamino)-propylamino]-1H-quinolin-4-one] came in with an IC50 of 14 nM.

As to `CCOc1c(I)cc(COC)cc1CNCCCNc1cc(O)c2ccccc2n1` [2-[3-(2-Ethoxy-3-iodo-5-methoxymethyl-benzylamino)-propylamino]-1H-quinolin-4-one], the IC50 worked out at 17 nM.

`Oc1cc(NCCCNC2CCc3c(Cl)cc(Cl)cc32)nc2ccccc12` (stereo not given) [2-[3-(4,6-Dichloro-indan-1-ylamino)-propylamino]-1H-quinolin-4-one] returned an IC50 of 5.1 nM. This IC50 is about 3.3-fold lower than that of the compound before.

`Oc1cc(NCCCNC2CCNc3c(Br)cc(Cl)cc32)nc2ccccc12` (stereo not given) displayed an IC50 of less than 3 nM.

As to `Oc1cc(NCCCNCc2ccc(Cl)c(Cl)c2)nc2ccccc12` [2-[3-(3,4-Dichloro-benzylamino)-propylamino]-1H-quinolin-4-one], the IC50 is 16 nM.

On to `Cc1cc(Br)cc2c1NCCC2NCCCNc1cc(O)c2ccccc2n1` (stereo not given) [2-[3-(6-Bromo-8-methyl-1,2,3,4-tetrahydro-quinolin-4-ylamino)-propylamino]-1H-quinolin-4-one], for which 9.4 nM corresponded to half-maximal inhibition (IC50).

`CCOc1c(CO)cc(I)cc1CNCCCNc1cc(O)c2ccccc2n1` [2-[3-(2-Ethoxy-3-hydroxymethyl-5-iodo-benzylamino)-propylamino]-1H-quinolin-4-one] displayed an IC50 of 4.1 nM.

`CCc1cc(Br)cc2c1NCCC2NCCCNc1cc(O)c2ccccc2n1` (stereo not given) [2-[3-(6-Bromo-8-ethyl-1,2,3,4-tetrahydro-quinolin-4-ylamino)-propylamino]-1H-quinolin-4-one] registered an IC50 of 4.3 nM.

`Oc1cc(NCCCNC2CCNc3c(Cl)cc(Br)cc32)nc2ccccc12` (stereo not given) had a half-maximal inhibitory concentration (IC50) of less than 3 nM.

In turn, `CCOc1c(CNCCCNc2cc(O)c3ccccc3n2)cc(I)cc1COC` [2-[3-(2-Ethoxy-5-iodo-3-methoxymethyl-benzylamino)-propylamino]-1H-quinolin-4-one] yielded an IC50 of 9.4 nM.

Consider `CCOc1c(C)cc(C(F)(F)F)cc1CNCCCNc1cc(O)c2ccccc2n1` [2-[3-(2-Ethoxy-3-methyl-5-trifluoromethyl-benzylamino)-propylamino]-1H-quinolin-4-one], for which inhibition was half-maximal at 6.8 nM (IC50).

`O=c1cc(NCCCNC2CCOc3c(Cl)cc(Cl)cc32)[nH]c2ccccc12` (stereo not given): the IC50 is less than 3 nM.

As to `CCOC(=O)c1cc(I)c(OCC)c(CNCCCNc2cc(O)c3ccccc3n2)c1` [4-Ethoxy-3-iodo-5-{[3-(4-oxo-1,4-dihydro-quinolin-2-ylamino)-propylamino]-methyl}-benzoic acid ethyl ester], the IC50 was found to be 170 nM.

`Oc1cc(NCCCNC2CCOc3c(Br)cc(Br)cc32)nc2ccccc12` (stereo not given) [2-(3-(6,8-dibromo-3,4-dihydro-2H-chromen-4-ylamino)propylamino)quinolin-4(1H)-one] registered an IC50 of 7.8 nM.

In turn, `CCc1cc(I)c2c(c1)C(NCCCNc1cc(O)c3ccccc3n1)CCN2` (stereo not given) [2-[3-(6-Ethyl-8-iodo-1,2,3,4-tetrahydro-quinolin-4-ylamino)-propylamino]-1H-quinolin-4-one] displayed an IC50 of 12 nM.

Compound `CCOC(=O)c1cc(I)cc(CNCCCNc2cc(O)c3ccccc3n2)c1OCC` [2-Ethoxy-5-iodo-3-{[3-(4-oxo-1,4-dihydro-quinolin-2-ylamino)-propylamino]-methyl}-benzoic acid ethyl ester] yielded a half-maximal inhibitory concentration (IC50) of 21 nM. Compared with the last compound, the IC50 is about 1.8-fold higher.

As for `Oc1cc(NCCCNC2CCNc3c(Cl)cc(Cl)cc32)nc2ccccc12` (stereo not given) [2-[3-(6,8-Dichloro-1,2,3,4-tetrahydro-quinolin-4-ylamino)-propylamino]-1H-quinolin-4-one], the half-inhibitory concentration (IC50) was found to be 23 nM.

Compound `CCOc1c(CNCCCNc2cc(O)c3ccccc3n2)cc(I)cc1C(C)(C)C` [2-[3-(3-tert-Butyl-2-ethoxy-5-iodo-benzylamino)-propylamino]-1H-quinolin-4-one] came in with an IC50 of 120 nM. Compared with the last compound, the IC50 is about 5.2-fold higher.

`CCOc1c(C#N)cc(Br)cc1CNCCCNc1cc(O)c2ccccc2n1` [5-Bromo-2-ethoxy-3-{[3-(4-oxo-1,4-dihydro-quinolin-2-ylamino)-propylamino]-methyl}-benzonitrile]: 4 nM corresponded to half-maximal inhibition (IC50).

Compound `CCOc1c(Br)cc([S+](C)[O-])cc1CNCCCNc1cc(O)c2ccccc2n1` (stereo not given) [2-[3-(3-Bromo-2-ethoxy-5-methanesulfinyl-benzylamino)-propylamino]-1H-quinolin-4-one] registered an IC50 of 23 nM.

As to `Oc1cc(NCCCNC2CCOc3c(I)cc(Cl)cc32)nc2ccccc12` (stereo not given) [2-[3-(6-Chloro-8-iodo-chroman-4-ylamino)-propylamino]-1H-quinolin-4-one], the IC50 turned out to be 9.4 nM.

In the case of `CCOc1c(CNCCCNc2cc(O)c3ccccc3n2)cc(I)cc1OC` [TCMDC-139847], the half-maximal inhibitory concentration (IC50) came to 12 nM.

`CCOc1c(C)cc(C#N)cc1CNCCCNc1cc(O)c2ccccc2n1` [4-Ethoxy-3-methyl-5-{[3-(4-oxo-1,4-dihydro-quinolin-2-ylamino)-propylamino]-methyl}-benzonitrile] displayed an IC50 of 3.9 nM. This IC50 is about 3.1-fold lower than that of the compound before.

`CCOc1c(I)cc(C)cc1CNCCCNc1cc(O)c2ccccc2n1` [2-[3-(2-Ethoxy-3-iodo-5-methyl-benzylamino)-propylamino]-1H-quinolin-4-one] showed an IC50 of 7.2 nM. Against the preceding compound, the IC50 is about 1.8-fold higher.

For the compound `Oc1cc(NCCCNC2CCOc3c(Cl)cc(I)cc32)nc2ccccc12` (stereo not given) [2-[3-(8-Chloro-6-iodo-chroman-4-ylamino)-propylamino]-1H-quinolin-4-one], inhibition was half-maximal at 12 nM (IC50).

Regarding `C=CCc1cc(I)cc(CNCCCNc2cc(O)c3ccccc3n2)c1OCC`, the IC50 was less than 3 nM.

Compound `Oc1cc(NCCCNC2COc3c(Cl)cc(Cl)cc32)nc2ccccc12` (stereo not given) [2-[3-(5,7-Dichloro-2,3-dihydro-benzofuran-3-ylamino)-propylamino]-1H-quinolin-4-one] showed an IC50 of 6 nM. That is a single-digit nanomolar value.

`Oc1cc(NCCCNC2CCCc3c(Cl)cc(Cl)cc32)nc2ccccc12` (stereo not given) [2-[3-(5,7-Dichloro-1,2,3,4-tetrahydro-naphthalen-1-ylamino)-propylamino]-1H-quinolin-4-one] yielded an IC50 of 3.8 nM.

As to `CCOc1c(CNCCCNc2cc(O)c3ccccc3n2)cc(Br)cc1OC` [TCMDC-139833], the IC50 was determined as 13 nM.

In turn, `CCOc1c(C)cc(I)cc1CNCCCNc1cc(O)c2ccccc2n1` [2-[3-(2-Ethoxy-5-iodo-3-methyl-benzylamino)-propylamino]-1H-quinolin-4-one] came in with an IC50 of 3.2 nM.

Turning to `CCOc1c(I)cc(OC)cc1CNCCCNc1cc(O)c2ccccc2n1` [2-[3-(2-Ethoxy-3-iodo-5-methoxy-benzylamino)-propylamino]-1H-quinolin-4-one], half-maximal inhibition (IC50) was put at 3.3 nM.

On to `CCOc1c(C)cc(SC)cc1CNCCCNc1cc(O)c2ccccc2n1` [2-[3-(2-Ethoxy-3-methyl-5-methylsulfanyl-benzylamino)-propylamino]-1H-quinolin-4-one], for which the IC50 was found to be 5.1 nM.

On to `Oc1cc(NCCCNC2CCNc3c(Br)cc(Br)cc32)nc2ccccc12` (stereo not given) [2-[3-(6,8-Dibromo-1,2,3,4-tetrahydro-quinolin-4-ylamino)-propylamino]-1H-quinolin-4-one], for which half-maximal inhibition (IC50) required 8 nM.
